Each structure is given as a SMILES string. pIC50: −log10 of the molar value.

As usually defined, the pIC50 is the IC50 on a negative log10 scale, so that one unit is a factor of ten.

The target in the experiment is human plasma kallikrein (Homo sapiens, UniProt P03952). The experiment can be described thus: Kallikrein inhibition FLINT assay with quenched AMC peptide substrate Z-Gly-Pro-Arg-AMC (end point EP or kinetic KIN reads). Type of experiment: biochemical. To be noted: kinetic reads at 5 min intervals over 30 min; read-out: Kallikrein (KIN) IC50. The method in brief: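 Enzyme and compound were preincubated 30 min before adding 50 μM AMC substrate in pH 7.5 Tris/NaCl/CaCl2/BSA/CHAPS buffer. AMC release was read at 30 min endpoint or every 5 min.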
human plasma kallikrein, sequence (P03952 391-638 limits assumed): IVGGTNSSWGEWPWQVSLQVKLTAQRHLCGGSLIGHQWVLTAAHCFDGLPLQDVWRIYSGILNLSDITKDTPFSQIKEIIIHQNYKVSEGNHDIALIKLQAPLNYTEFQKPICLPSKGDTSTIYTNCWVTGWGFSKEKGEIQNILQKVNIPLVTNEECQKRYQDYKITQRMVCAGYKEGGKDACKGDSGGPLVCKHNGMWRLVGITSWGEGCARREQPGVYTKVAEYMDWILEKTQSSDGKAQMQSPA
human plasma kallikrein, sequence (P03952 20-390 partner limits assumed): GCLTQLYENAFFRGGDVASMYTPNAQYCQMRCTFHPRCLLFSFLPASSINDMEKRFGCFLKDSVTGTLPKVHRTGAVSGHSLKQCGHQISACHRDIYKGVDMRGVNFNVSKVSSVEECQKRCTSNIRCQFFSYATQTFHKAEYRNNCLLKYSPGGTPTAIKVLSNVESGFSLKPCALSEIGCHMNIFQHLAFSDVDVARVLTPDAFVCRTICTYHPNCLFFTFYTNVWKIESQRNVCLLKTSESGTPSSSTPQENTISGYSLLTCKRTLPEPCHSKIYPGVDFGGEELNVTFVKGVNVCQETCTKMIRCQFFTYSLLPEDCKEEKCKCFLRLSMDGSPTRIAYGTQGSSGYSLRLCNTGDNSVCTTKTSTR
Turning to `O=c1ccccn1CC(c1ccc(-c2c(-n3cnnn3)ccc(Cl)c2F)c[n+]1[O-])n1cc(-c2ccnc(C(F)(F)F)c2)cn1` (stereo not shown) [Example P358], the pIC50 is 7.09.
To `Cn1ccc(CC(c2ccc(-c3c(-n4cnnn4)ccc(Cl)c3F)c[n+]2[O-])n2cc(-c3ccnc(C#N)c3)cn2)n1` (stereo not shown) [Example P359] belongs 7.99.
To `[O-][n+]1ccc(-c2cnn(C(Cn3cc(F)cn3)c3ccc(-c4c(-n5cnnn5)ccc(Cl)c4F)c[n+]3[O-])c2)cc1` (stereo not shown) [Example P360] belongs 7.44; to `O=C1CCCN1CC(c1ccc(-c2c(-n3cnnn3)ccc(Cl)c2F)c[n+]1[O-])n1cc(-c2cc[n+]([O-])c(C(F)F)c2)cn1` (stereo not shown) [Example P365], 7.52; to `[O-][n+]1cc(-c2c(-n3cnnn3)ccc(Cl)c2F)ccc1C(CCOC(F)(F)F)n1cc(-c2ccncn2)cn1` (stereo not shown) [Example P366], 6.82.
To `[O-][n+]1cc(-c2c(-n3cnnn3)ccc(Cl)c2F)ccc1C(CCOC(F)F)n1cc(-c2ccncn2)cn1` (stereo not shown) [Example P367] belongs 7.36; to `Cc1nccc(-c2cnn(C(CC3CC3)c3ccc(-c4c(-n5cnnn5)ccc(Cl)c4F)c[n+]3[O-])c2)n1` (stereo not shown) [Example P368], 6.21.
`Cn1ccc(CC(c2ccc(-c3c(-n4cnnn4)ccc(Cl)c3F)c[n+]2[O-])n2cc(-c3ccnc(C(F)(F)F)c3)cn2)n1` (stereo not shown) [Example P377]: the negative logarithm of the IC50 (pIC50) is 8.68.
To `[O-][n+]1cc(-c2c(-n3cnnn3)ccc(Cl)c2F)ccc1C(CCOC(F)F)n1cc(-c2ccncc2F)cn1` (stereo not shown) [Example P385] belongs 8.46; to `[O-][n+]1cc(-c2cc(Cl)ccc2-n2cnnn2)ccc1C(Cn1cc2c(n1)COCC2)n1cc(-c2ccnc(C(F)(F)F)c2)cn1` (stereo not shown) [Example P388], 6.90; to `CC(C)c1cc(-c2cnn(C(Cn3cc(F)cn3)c3ccc(-c4c(-n5cnnn5)ccc(Cl)c4F)c[n+]3[O-])c2)ccn1` (stereo not shown) [Example P393], 7.44.
To `CC(C)(C)c1cc(-c2cnn(C(Cn3cc(F)cn3)c3ccc(-c4c(-n5cnnn5)ccc(Cl)c4F)c[n+]3[O-])c2)ccn1` (stereo not shown) [Example P395] belongs 7.59.
In the case of `[O-][n+]1cc(-c2c(-n3cnnn3)ccc(Cl)c2F)ccc1C(CC1CC1)n1cc(-c2ccnnc2)cn1` (stereo not shown) [Example P397], the pIC50 is 6.40.
Consider `[O-][n+]1ccc(-c2cnn(C(CC3CC3)c3ccc(-c4c(-n5cnnn5)ccc(Cl)c4F)c[n+]3[O-])c2)cn1` (stereo not shown) [Example P398], for which the negative logarithm of the IC50 (pIC50) was 6.14.
To `CN(CC(c1ccc(-c2c(-n3cnnn3)ccc(Cl)c2F)c[n+]1[O-])n1cc(-c2ccnc(C(F)(F)F)c2)cn1)C(=O)C1CCOCC1` (stereo not shown) [Example P407] belongs 6.96.
To `Cn1cc(CC(c2ccc(-c3c(-n4cnnn4)ccc(Cl)c3F)c[n+]2[O-])n2cc(-c3ccnc(C#N)c3)cn2)cn1` (stereo not shown) [Example P408] belongs 7.76; to `Cn1ncc(-c2cnn(C(CCOC(F)F)c3ccc(-c4c(-n5cnnn5)ccc(Cl)c4F)c[n+]3[O-])c2)cc1=O` (stereo not shown) [Example P415], 6.74.
To `CC(C)C(=O)N(C)CC(c1ccc(-c2c(-n3cnnn3)ccc(Cl)c2F)c[n+]1[O-])n1cc(-c2ccnc(F)c2)cn1` (stereo not shown) [Example P418] belongs 7.25; to `[O-][n+]1cc(-c2c(-n3cnnn3)ccc(Cl)c2F)ccc1C(Cn1ccc(C2CCOCC2)n1)n1cc(-c2ccnc(C(F)(F)F)c2)cn1` (stereo not shown) [Example P419], 7.44.
On to `CN(CC(c1ccc(-c2c(-n3cnnn3)ccc(Cl)c2F)c[n+]1[O-])n1cc(-c2ccnc(F)c2)cn1)C(=O)c1ccccc1` (stereo not shown) [Example P424], for which the negative-log IC50 (pIC50) was 7.54.
The result for `CN(CC(c1ccc(-c2c(-n3cnnn3)ccc(Cl)c2F)c[n+]1[O-])n1cc(-c2ccnc(F)c2)cn1)C(=O)C(C)(C)C` (stereo not shown) [Example P426] reads 7.27; that for `COCC(=O)N(C)CC(c1ccc(-c2c(-n3cnnn3)ccc(Cl)c2F)c[n+]1[O-])n1cc(-c2ccnc(C(F)(F)F)c2)cn1` (stereo not shown) [Example P427], 7.18.
The result for `CN1CCN(CC(c2ccc(-c3c(-n4cnnn4)ccc(Cl)c3F)c[n+]2[O-])n2cc(-c3ccnc(C(F)(F)F)c3)cn2)C1=O` (stereo not shown) [Example P432] reads 8.55; that for `CC(C)(C)c1cc(-c2cnn(C(Cn3cc(F)cn3)c3ccc(-c4c(-n5cnnn5)ccc(Cl)c4F)c[n+]3[O-])c2)cc[n+]1[O-]` (stereo not shown) [Example P436], 7.02.
With `CN(C)C(=O)N(C)CC(c1ccc(-c2c(-n3cnnn3)ccc(Cl)c2F)c[n+]1[O-])n1cc(-c2ccnc(C(F)(F)F)c2)cn1` (stereo not shown) [Example P437], the pIC50 was 6.95.
The result for `O=C(O)c1ccn(CC(c2ccc(-c3c(-n4cnnn4)ccc(Cl)c3F)c[n+]2[O-])n2cc(-c3ccncc3)cn2)n1` (stereo not shown) [Example P442] reads approximately 6.86.
To `NC(=O)c1ccn(CC(c2ccc(-c3c(-n4cnnn4)ccc(Cl)c3F)c[n+]2[O-])n2cc(-c3ccncc3)cn2)n1` (stereo not shown) [Example P443] belongs 8.77; to `O=C(O)C1CCN(C(=O)c2ccn(CC(c3ccc(-c4c(-n5cnnn5)ccc(Cl)c4F)c[n+]3[O-])n3cc(-c4ccncc4)cn3)n2)CC1` (stereo not shown) [Example P444], 8.74.
To `O=C(c1ccn(CC(c2ccc(-c3c(-n4cnnn4)ccc(Cl)c3F)c[n+]2[O-])n2cc(-c3cc[n+]([O-])cc3)cn2)n1)N1CCCCC1` (stereo not shown) [Example P447] belongs 8.37; to `Cn1cc(CC(c2ccc(-c3c(-n4cnnn4)ccc(Cl)c3F)c[n+]2[O-])n2cc(-c3ccnc(C(F)(F)F)c3)cn2)cn1` (stereo not shown) [Example P452], 7.97; to `[O-][n+]1cc(-c2c(-n3cnnn3)ccc(Cl)c2F)ccc1C(CC1CC1)n1cc(-c2cnco2)cn1` (stereo not shown) [Example P455], 6.30.
For the compound `[O-][n+]1cc(-c2c(-n3cnnn3)ccc(Cl)c2F)ccc1C(CC1CC1)n1cc(-c2cnsc2)cn1` (stereo not shown) [Example P456], the negative logarithm of the IC50 (pIC50) was 6.20.
The result for `Cn1cncc1-c1cnn(C(CC2CC2)c2ccc(-c3c(-n4cnnn4)ccc(Cl)c3F)c[n+]2[O-])c1` (stereo not shown) [Example P457] reads 6.26.
To `N#Cc1cc(-c2cnn(C(CCOC(F)F)c3ccc(-c4c(-n5cnnn5)ccc(Cl)c4F)c[n+]3[O-])c2)ccn1` (stereo not shown) [Example P458] belongs 7.72; to `N#Cc1cc(-c2cnn(C(Cn3ccccc3=O)c3ccc(-c4c(-n5cnnn5)ccc(Cl)c4F)c[n+]3[O-])c2)ccn1` (stereo not shown) [Example P459], 6.98; to `N#Cc1cc(-c2cnn(C(CN3CCCC3=O)c3ccc(-c4c(-n5cnnn5)ccc(Cl)c4F)c[n+]3[O-])c2)ccn1` (stereo not shown) [Example P461], 7.49.
The result for `[O-][n+]1cc(-c2c(-n3cnnn3)ccc(Cl)c2F)ccc1C(CCOC(F)F)n1cc(-c2ccnc(C(F)(F)F)c2)cn1` (stereo not shown) [Example P462] reads 7.84.
For `[O-][n+]1cc(-c2c(-n3cnnn3)ccc(Cl)c2F)ccc1C(Cn1cc2c(n1)COCC2)n1cc(-c2ccnc(C(F)(F)F)c2)cn1` (stereo not shown) [Example P463], the negative-log IC50 (pIC50) is 8.19.
To `COCc1ccnn1CC(c1ccc(-c2c(-n3cnnn3)ccc(Cl)c2F)c[n+]1[O-])n1cc(-c2ccnc(C(F)(F)F)c2)cn1` (stereo not shown) [Example P464] belongs 6.73; to `[O-][n+]1cc(-c2c(-n3cnnn3)ccc(Cl)c2F)ccc1C(Cn1cc2c(n1)COCC2)n1cc(-c2ccnc(C(F)(F)F)c2)cn1` (stereo not shown) [Example P465], 7.12.
The result for `N#Cc1cc(-c2cnn(C(CN3CCCC3=O)c3ccc(-c4c(-n5cnnn5)ccc(Cl)c4F)c[n+]3[O-])c2)cc[n+]1[O-]` (stereo not shown) [Example P466] reads 6.64; that for `[O-][n+]1cc(-c2c(-n3cnnn3)ccc(Cl)c2F)ccc1C(CC1CC1)n1cc(-c2ccn[nH]2)cn1` (stereo not shown) [Example P467], 6.11; that for `[O-][n+]1cc(-c2c(-n3cnnn3)ccc(Cl)c2F)ccc1C(Cn1cc(F)cn1)n1cc(-c2cc(C(F)(F)F)ncn2)cn1` (stereo not shown) [Example P468], 6.80.
As for `[O-][n+]1cc(-c2c(-n3cnnn3)ccc(Cl)c2F)ccc1C(Cn1cc(F)cn1)n1cc(-c2ccnc(C(F)(F)F)n2)cn1` (stereo not shown) [Example P469], the pIC50 is 7.44.
`NC(=O)Cc1ccnn1CC(c1ccc(-c2c(-n3cnnn3)ccc(Cl)c2F)c[n+]1[O-])n1cc(-c2ccnc(C(F)(F)F)c2)cn1` (stereo not shown) [Example P470]: the negative logarithm of the IC50 (pIC50) was 7.00.
To `Nc1ccc(-c2cnn(C(Cn3cc(CC(=O)N4CCCCC4)cn3)c3ccc(-c4c(-n5cnnn5)ccc(Cl)c4F)c[n+]3[O-])c2)c(F)n1` (stereo not shown) [Example P471] belongs 7.29.
The result for `Cc1cc(-c2cnn(C(Cn3cc(F)cn3)c3ccc(-c4c(-n5cnnn5)ccc(Cl)c4F)c[n+]3[O-])c2)cc[n+]1[O-]` (stereo not shown) [Example P472] reads 7.39; that for `O=C(Cc1cnn(CC(c2ccc(-c3c(-n4cnnn4)ccc(Cl)c3F)c[n+]2[O-])n2cc(-c3ccnc(C(F)(F)F)c3)cn2)c1)N1CCCCC1` (stereo not shown) [Example P473], 6.98.
To `Cc1cc(-c2cnn(C(Cn3cc(F)cn3)c3ccc(-c4c(-n5cnnn5)ccc(Cl)c4F)c[n+]3[O-])c2)ccn1` (stereo not shown) [Example P474] belongs 7.88.
Consider `O=C(Cc1cnn(CC(c2ccc(-c3c(-n4cnnn4)ccc(Cl)c3F)c[n+]2[O-])n2cc(-c3ccnc(C(F)(F)F)c3)cn2)c1)N1CCCCC1` (stereo not shown) [Example P475], for which the negative-log IC50 (pIC50) was 6.49.
To `COC(=O)Nc1ccc(-c2cnn(C(CN(C)C(=O)OC)c3ccc(-c4c(-n5cnnn5)ccc(Cl)c4F)c[n+]3[O-])c2)cc1` (stereo not shown) [Example P476] belongs 7.67.
`Cc1cc(-c2cnn(C(Cn3cc(F)cn3)c3ccc(-c4c(-n5cnnn5)ccc(Cl)c4F)c[n+]3[O-])c2)cc(C)[n+]1[O-]` (stereo not shown) [Example P477]: the pIC50 was 6.73.
To `Cn1ncc(F)c1-c1cnn(C(CC2CC2)c2ccc(-c3c(-n4cnnn4)ccc(Cl)c3F)c[n+]2[O-])c1` (stereo not shown) [Example P478] belongs 6.63.
To `[O-][n+]1cc(-c2c(-n3cc(Cl)nn3)ccc(Cl)c2F)ccc1C(Cn1cc(F)cn1)n1cc(-c2ccnc(C(F)(F)F)c2)cn1` (stereo not shown) [Example P479] belongs 6.73; to `COC(=O)N(C)CC(c1ccc(-c2c(-n3cnnn3)ccc(Cl)c2F)c[n+]1[O-])n1cc(-c2ccc(N)nc2F)cn1` (stereo not shown) [Example P482], 7.64.

The values above are taken from patent publication US11814364B2, “Pyridine N-oxide derivatives useful as factor XIa inhibitors” (Janssen Pharmaceutica NV, priority 2021, dated 2023).
